Measured values: patent publication US20030051262A1, “Animal models for neurodegenerative disease” (priority 1999, published 2003)
Peptide text beside a SMILES is read from it.

Tests used:
rat hippocampus = experiment: Direct injection into rat hippocampus, histological effects (length of hippocampal cell layers destroyed); assay type: in vivo; settings: for extent of hippocampal damage: 68 mM in a volume of 1 μl into hippocampus
Procedure: AChE peptide was injected into rat hippocampus and subsequently the brains were examined under a light microscope. The hippocampus was-chosen as the most suitable brain structure in which to show effects of AChE peptide as it is very vulnerable to neurotoxins and damage from other causes such as ischaemia. Post mortem histological. examination or pre mortem brain scans reveal prominent decay of the hippocampus in Alzheimer brains.
Male Wistar or Dark Agouti (DA) rats were anaesthetised with Avertin and injected with 0.5 μl of 2 mM AChE peptide (DA rats received 1 μl of 1 mM) in the right hippocampus. An equivalent control injection was made in the left hippocampus. After recovery from the anaesthetic and a few days in their home cages rats were deeply anaesthetised and transcardially perfused with formalin preservative, the brains removed and prepared for microscopical examination. Sections of 50 μm were cut on a sliding microtome and stained with cresyl violet to show the nerve cells. The amount of neural damage was estimated by counting the length of hippocampal cell layers destroyed (quantified in terms of microscope graticule units).
A small number of injections were made into the hippocampus of DA rats with the reference neurotoxin NMDA (N-methyl D-aspartic acid) at an equivalent concentration to that of AChE peptide used above (1 μl of 1 mM).
(§1) Since the concentration of NMDA used to produce experimental neural destruction (as a tool in experimental psychology to examine the function of a particular brain region) is much higher (typically 68 mM) a small number of rats were injected with this larger amount, in a volume of 1 μl, in comparison with an equivalent amount of AChE peptide.

[1] = Post-operative body weight after injection into S/DB; assay type: in vivo, rat; settings: 2 μl of 33 mM into S/DB, Wistar rats, weighed daily
Procedure: (§2) The experimental group (n=6 rats) received an injection of AChE peptide into the medial septum/vertical limb of the diagonal band (S/DB). Control rats (n=6 rats) received an equal amount of the vehicle, water, in the same way, while another group (n=5 rats) received an injection of the reference neurotoxin NMDA at an equivalent dose to that of AChE peptide (2 μl of 33 mM). Each injection was given slowly over 15 minutes through a 34 gauge stainless steel injection needle coupled by polyethylene tubing to a 10 μl Hamilton syringe. Co-ordinates used on the stereotaxic instrument (Kopf) were 0.7 mm anterior to bregma, 1.0 mm lateral to midline and 6.5 mm from skull surface at bregma. The incisor bar was set at −0.5 mm for all rats, resulting in approximately a level skull surface between the bregma and lambda sutures. The arm of the stereotaxic instrument was angled at 10 degrees to vertical to avoid damage to the sagittal sinus.
Post-operatively the rats were weighed every day. Approximately two weeks after operation they were again food restricted and tested for performance on the T-maze.

[2] = test system: medial septum/vertical limb of the diagonal band (S/DB); experiment: Delayed non-matching to sample (DNMS) T-maze task after injection into S/DB; assay type: in vivo, rat; settings: 2 μl of 33 mM into S/DB
Source text: Wistar rats (175-200 g) were received from the suppliers (Harlan UK) and acclimated to the laboratory for three weeks before being trained on a delayed non-matching to sample (DNMS) task on an elevated wooden T-maze. In this task they are mildly food deprived and receive food pellets with enhanced flavour and nutritional content as rewards.
The DNMS task capitalises on the rat's innate tendency to alternate which cross arm of the T-maze it runs along; this derives from its normal foraging behaviour, where returning to a place from which it has recently eaten all the food is unlikely to pay dividends.
Each rat is placed at the start of the stem of the T-maze and allowed to run to retrieve a food pellet at the end of one cross arm. Access to the other cross arm is blocked. This block is then removed and the rat returned to the start. Normal rats choose to go to the opposite arm to that recently visited on this free choice part of the trial. After being allowed to consume their reward (if a correct choice was made) they are returned to their home cage and their cagemate is then tested in the same way. Typically a squad of ten rats is run in a “round robin’ fashion, so up to fifteen minutes intervenes between one trial and the next. Normal rats excel at this task once initial training (chiefly to familiarise them with the new smells on the maze and the elevated position off the floor) is complete.
The rats in the present experiment were given forty trials on the T-maze, then divided into groups matched for performance (all were above 90% correct). They were returned to unlimited food for a few days before undergoing surgery under Avertin anaesthesia.
The experimental group (n=6 rats) received an injection of AChE peptide into the medial septum/vertical limb of the diagonal band (S/DB). Control rats (n=6 rats) received an equal amount of the vehicle, water, in the same way, while another group (n=5 rats) received an injection of the reference neurotoxin NMDA at an equivalent dose to that of AChE peptide (2 μl of 33 mM). […]

[3] = test system: medial septum/vertical limb of the diagonal band (S/DB); experiment: Locomotor activity cages after injection into S/DB; assay type: in vivo, rat; settings: 2 μl of 33 mM into S/DB, two successive days
Procedure: as §2
After completion of T-maze testing rats were returned to a free feeding regimen before being tested on two successive days in standard locomotor activity cages. Each cage was equipped with two infrared beams to detect movement.

[4] = test system: medial septum/vertical limb of the diagonal band (S/DB); experiment: Histology of septal region after injection into S/DB; assay type: in vivo, rat; settings: for histological appearance of the septal area: 2 μl of 33 mM into S/DB, Example 2
Procedure: as §2
After a final weighing, rats were killed by stunning followed by decapitation. The hippocampus and cingulate/secondary motor cortex were rapidly removed and stored frozen at −80 degrees Celsius. The block of brain anterior to the hippocampus was placed in 30% sucrose formalin and left to fix for at least a week prior to sectioning on a microtome and staining with cresyl violet. Microscopical brain examination was subsequently performed as in earlier experiments.
Wistar rats were anaesthetised and injected as described in Example 2, with one of the following. AChE peptide, the equivalent peptide from BuChE, a scrambled version of the AChE peptide: HSWRAEVFHKYWSM, NMDA and water as a control. The number of rats in each group was between four and five.
Brain examination was performed as described in Example 2.

[5] = test system: nucleus basalis of Meynert (NBM); experiment: Serial choice reaction task (attention) after injection into NBM; assay type: in vivo, rat; settings: bilateral 2 μl of 16.5 mM into NBM, light stimulus 1.0 s
Procedure: Testing for loss of cognitive function reminiscent of loss of such function associated with Alzheimer's Disease in humans was carried out using a serial choice reaction task, a preferred form of task for testing for attentional deficits, as described by Higgs et al. (Higgs, S., Deacon, R. M. J. & Rawlins, J. N. P., European Journal of Neuroscience (2000)12, 1781-1788).
A rat testing cubicle with a retractable lever on the front wall was employed as illustrated in FIG. 11. The back wall was concave with three food magazines, one in each corner and one in the centre. A light was present within each corner magazine. Magazine entries were recorded by microswitches attached to panels covering the entrances. The entire apparatus was computer-controlled.
Rats are trained to press the lever when it is presented. […] The rat will find a reward (a 45 mg food pellet) respectively in the left, right or centre magazine tray.
A cohort of rats were trained on the attentional task (light stimulus duration 1.0 s). When performance was stable, they were divided into three matched groups, each with seven or more rats. Under deep anaesthesia, each rat was placed in a stereotaxic frame, with the incisor bar set at −3 mm to give a level head. Bilateral-injections, each of 2 μl, were made into the NBM area (see FIG. 13). The control group of rats received injections of water. […]

[6] = test system: choline acetyltransferase; experiment: Cortical choline acetyltransferase (ChAT) level after NBM lesion; assay type: in vivo, rat; settings: bilateral 2 μl of 16.5 mM into NBM
Procedure: After a period of post-operative testing, the rats were terminally anaesthetised and perfused intracardially with ice cold saline. The brain was removed and a portion of cortex (including the frontal, parietal and temporal areas, but excluding visual and cingulate cortex) was removed from each hemisphere and frozen. The remaining brain was preserved in formalin and subsequently coronally sectioned and stained with cresyl violet. The position and extent of the lesions was then determined by microscopical examination.
The frozen cortical tissue was used to determine the effectiveness of the NBM lesion. Using the method of Fonnum (J. Neurochem. (1975) 24, 407-409), the levels of the acetylcholine synthesising enzyme, choline acetyltransferase, (ChAT) were measured.
Since a proportion of this enzyme is due to the cholinergic innervation from the NBM, a decrease of ChAT would corroborate visualisation of a lesion at the site of injection in the NBM itself.

[7] = Body weight and condition after high-dose hippocampal injection; assay type: in vivo, rat; settings: higher dose (68 mM, 1 μl) into hippocampus, one of two rats, 5 days after surgery
Procedure: as §1
One of the two rats given AChE peptide at this higher dose looked very sick 5 days after the surgery and was therefore deeply anaesthetised and the brain prepared for microscopy. […] The other rat survived 11 days until it was finally anaesthetised, but it too lost some weight. This supported informal observations from the earlier, low dose experiment that AChE peptide treated rats might lose more weight than is normal after such surgery.

mice = experiment: Injection of AChE peptide into mice; assay type: in vivo

Structure (SMILES) | extent of hippocampal damage (rat hippocampus) | histological examination of hippocampal brain sections (rat hippocampus; DA rats, 1 μl of 1 mM into hippocampus) | post-operative weight loss and recovery [1] | T-maze performance in subsequent trials ([2]; after first block of ten trials) | T-maze performance with 45 second delay between sample and choice ([2]; delay about 45 s) | T-maze performance, twenty massed trials ([2]; massed trials) | locomotor activity (ANOVA, group effect) [3] | histological appearance of the septal area [4] | proportion of correct lever-light trials [5] | cholinergic loss in the cortex as measured by HPLC ChAT level [6] [%] | mean units of damage (length of hippocampal cell layers destroyed) (rat hippocampus; Wistar rats, 0.5 μl of 2 mM in right hippocampus, P=0.008 vs control side) [units] | units of damage (length of hippocampal cell layers destroyed, microscope graticule units) (rat hippocampus; most symmetrically injected DA rat, 1 μl of 1 mM in right hippocampus) [units] | body weight after surgery [7] | tissue loss in the medial septal region ([4]; Example 3, Wistar rats injected as in Example 2) | lesion size relative to NMDA ([4]; S/DB region) | time for lesion to form after introduction into S/DB ([4]; S/DB region, time course by MRI) | neurotoxic effects in mice (mice)
CN[C@H](CC(=O)O)C(=O)O [NMDA, N-methyl D-aspartic acid] | more widespread | small areas of neural damage | lost more weight than controls | returned to control levels | non-significant decrease | little effect | not significantly different | only small effects | didn't produce a significant reduction | 12.1 | – | – | – | – | – | – | –
CSCC[C@H](NC(=O)[C@H](Cc1ccc(O)cc1)NC(=O)[C@H](CO)NC(=O)[C@H](CO)NC(=O)[C@H](Cc1c[nH]c2ccccc12)NC(=O)[C@H](CCCNC(=N)N)NC(=O)[C@H](Cc1c[nH]cn1)NC(=O)[C@H](Cc1ccccc1)NC(=O)[C@H](CCC(=O)O)NC(=O)[C@H](C)N)C(=O)N[C@H](C(=O)N[C@@H](Cc1c[nH]cn1)C(=O)N[C@@H](Cc1c[nH]c2ccccc12)C(=O)N[C@@H](CCCCN)C(=O)O)C(C)C [AChE peptide, AEFHRWSSYMVHWK] (H-AEFHRWSSYMVHWK-OH) | local hippocampal damage | – | statistically significantly slower than either controls or NMDA rats to recover their weight | – | – | – | – | striking damage | – | – | 155.3 | 119 | Severe body weight loss | Significant tissue loss | an order of magnitude larger | less than an hour | Neurotoxic effects have also been observed
